Seven molecules from publication PMC9090415, “Discovery of small molecule inhibitors of Plasmodium falciparum apicoplast DNA polymerase” (Journal of Enzyme Inhibition and Medicinal Chemistry, 2022) can be followed below.

A word on the IC50: it is the concentration that gives 50% inhibition.

This experiment concerns the target P. falciparum apicoplast DNA polymerase (Pf-apPOL) (Plasmodium falciparum, UniProt Q8ILY1). Nature of the experiment: Fluorescence-based high-throughput DNA polymerase assay (molecular beacon), primary screen and dose-response.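 As to % inhibition ApPOL 90': test concentration in µM.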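 As to % inhibition apPOL 180': test concentration in µM.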 The format is biochemical. The method in brief: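 Single-point screening used 10 µM compound with 20 nM polymerase, 20 nM hairpin substrate and 6 µM dNTPs for 90 min at 25 °C. Confirmatory titrations (2.5–80 µM) followed fluorescence at three times, and IC50 was derived from a fit including a cooperativity term n.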

[1] abbreviates: supplemental file 2, sheet IC50 nontoxic compounds; Pf-apPOL.

Chain of P. falciparum apicoplast DNA polymerase (Pf-apPOL) (Q8ILY1 entry or part of it): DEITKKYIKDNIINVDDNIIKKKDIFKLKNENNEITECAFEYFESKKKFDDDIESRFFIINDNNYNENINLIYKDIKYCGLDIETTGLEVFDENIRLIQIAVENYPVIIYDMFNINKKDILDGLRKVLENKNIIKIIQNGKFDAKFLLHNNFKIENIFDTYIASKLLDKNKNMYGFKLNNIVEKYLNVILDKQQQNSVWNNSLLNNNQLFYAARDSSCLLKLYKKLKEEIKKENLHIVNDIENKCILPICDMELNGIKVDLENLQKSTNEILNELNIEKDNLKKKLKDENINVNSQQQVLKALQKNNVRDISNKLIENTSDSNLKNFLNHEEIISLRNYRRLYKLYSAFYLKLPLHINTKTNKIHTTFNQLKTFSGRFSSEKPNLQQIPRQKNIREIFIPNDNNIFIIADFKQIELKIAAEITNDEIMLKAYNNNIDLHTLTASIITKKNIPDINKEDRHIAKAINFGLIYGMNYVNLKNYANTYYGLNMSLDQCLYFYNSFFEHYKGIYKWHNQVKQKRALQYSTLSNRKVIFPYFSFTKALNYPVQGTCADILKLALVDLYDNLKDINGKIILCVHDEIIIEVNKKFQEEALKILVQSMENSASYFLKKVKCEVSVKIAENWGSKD

In the case of `Cc1ccccc1NC(=O)Cn1ccc2c(=O)[nH]ccc21` [Molecule 50, O=C(Cn1ccc2c1cc[nH]c2=O)Nc1ccc(cc1)C], the “DNA Pol” value by setting is: ('DNA Pol' of the 186 hits list (screen value); 90 min, 10 µM) 47; (primary screen value, "DNA Pol"; 90 min, 10 µM) 47. Moreover, the “% inhibition Apo pol 10'” value (DRC-1; 10'; conc 2.5) was 6.138%; the “% inhibition Apo pol 10'” value (DRC-1; 10'; conc 5) worked out at 25.5303%; the “% inhibition Apo pol 10'” value (DRC-1; 10'; conc 10) amounted to 50.7772%; the “% inhibition Apo pol 10'” value (DRC-1; 10'; conc 20) was 84.6667%; the “% inhibition Apo pol 10'” value (DRC-1; 10'; conc 40) worked out at 88.6284%; the “% inhibition Apo pol 10'” value (DRC-1; 10'; conc 80) turned out to be 86.1182%. Moreover, the “% inhibition Apol 90'” value is given as 0% (DRC-1; 90'; conc 2.5); 12.4445% (DRC-1; 90'; conc 5); 34.9563% (DRC-1; 90'; conc 10); 76.8341% (DRC-1; 90'; conc 20); 88.9511% (DRC-1; 90'; conc 40); 91.6504% (DRC-1; 90'; conc 80). The “% inhibition apPOL 180'” value (DRC-1; 180'; conc 2.5) is listed as -5.117%; the “% inhibition apPOL 180'” value (DRC-1; 180'; conc 5) turned out to be 1.53%; the “% inhibition apPOL 180'” value (DRC-1; 180'; conc 10) came to 18.0817%; the “% inhibition apPOL 180'” value (DRC-1; 180'; conc 20) is recorded as 64.1474%; the “% inhibition apPOL 180'” value (DRC-1; 180'; conc 40) worked out at 85.8042%; the “% inhibition apPOL 180'” value (DRC-1; 180'; conc 80) is given as 93.6476%. Further, the “% inhibition apPOL 180'” value (DRC-2; 180'; conc 2.5) is -4%; the “% inhibition apPOL 180'” value (DRC-2; 180'; conc 5) came to 2.7%; the “% inhibition apPOL 180'” value (DRC-2; 180'; conc 10) is reported as 29%; the “% inhibition apPOL 180'” value (DRC-2; 180'; conc 20) amounted to 60%; the “% inhibition apPOL 180'” value (DRC-2; 180'; conc 40) came to 78%; the “% inhibition apPOL 180'” value (DRC-2; 180'; conc 80) came to 78%. In addition, the “% inhibition apPOL 180'” value (DRC-2; 180'; concentration 40) was 78% and the “% inhibition apPOL 180'” value (DRC-2; 180'; concentration 80) is 78%. The “% inhibition Apo pol 5'” value by setting is: (DRC-2; 5'; conc 2.5) 8%; (DRC-2; 5'; conc 5) 16%; (DRC-2; 5'; conc 10) 39%; (DRC-2; 5'; conc 20) 47%; (DRC-2; 5'; conc 40) 49%; (DRC-2; 5'; conc 80) 42%. In addition, the “% inhibition Apo pol 5'” value (DRC-2; 5'; concentration 5) was 16%. For the same molecule, the “% inhibition Apol 40'” value (DRC-2; 40'; conc 2.5) was found to be 5%; the “% inhibition Apol 40'” value (DRC-2; 40'; conc 5) stood at 16%; the “% inhibition Apol 40'” value (DRC-2; 40'; conc 10) was determined as 44%; the “% inhibition Apol 40'” value (DRC-2; 40'; conc 20) turned out to be 64%; the “% inhibition Apol 40'” value (DRC-2; 40'; conc 40) was determined as 70%; the “% inhibition Apol 40'” value (DRC-2; 40'; conc 80) amounted to 67%. The “% inhibition Apol 40'” value (DRC-2; 40'; concentration 5) was found to be 16%. For the same molecule, the “% inhibition ApPOL 90'” value (DRC-2; 90'; conc 2.5) stood at 0.827%; the “% inhibition ApPOL 90'” value (DRC-2; 90'; conc 5) is 13%; the “% inhibition ApPOL 90'” value (DRC-2; 90'; conc 10) worked out at 41%; the “% inhibition ApPOL 90'” value (DRC-2; 90'; conc 20) is 65%; the “% inhibition ApPOL 90'” value (DRC-2; 90'; conc 40) amounted to 75%; the “% inhibition ApPOL 90'” value (DRC-2; 90'; conc 80) came to 73%.

In the case of `Cc1ccc(NC(=O)Cn2ccc3c(=O)[nH]ccc32)cc1` [Molecule 50], the IC50 under setting [1] stood at 13.7 µM.

Take `O=C(c1c[nH]c2ncccc12)N1CCCCCC1` [Molecule 51, O=C(c1c[nH]c2c1cccn2)N1CCCCCC1]: the “DNA Pol” value turned out to be 25 ('DNA Pol'; screening value, unit not given; 90 min, 10 µM) and 25 (primary screen hit value, DNA Pol (186 hits); 90 min, 10 µM). The “% inhibition Apo pol 10'” value runs as follows: (DRC-1; 10'; concentration 2.5) 0.9621%; (DRC-1; 10'; concentration 5) 3.05%; (DRC-1; 10'; concentration 10) 7.159%; (DRC-1; 10'; concentration 20) 44.6815%; (DRC-1; 10'; concentration 40) 69.4342%; (DRC-1; 10'; concentration 80) 66.9665%. Further, the “% inhibition Apol 90'” value by setting is: (DRC-1; 90'; concentration 2.5) 1.194%; (DRC-1; 90'; concentration 5) 0.544%; (DRC-1; 90'; concentration 10) 3.081%; (DRC-1; 90'; concentration 20) 31.7125%; (DRC-1; 90'; concentration 40) 60.4317%; (DRC-1; 90'; concentration 80) 59.6767%. The “% inhibition apPOL 180'” value runs as follows: (DRC-1; 180'; concentration 2.5) -0.2836%; (DRC-1; 180'; concentration 5) -4.489%; (DRC-1; 180'; concentration 10) -1.621%; (DRC-1; 180'; concentration 20) 18.2058%; (DRC-1; 180'; concentration 40) 46.8298%; (DRC-1; 180'; concentration 80) 46.9776%. For the same molecule, the “% inhibition apPOL 180'” value by setting is: (DRC-2, 180', concentration 2.5) -1%; (DRC-2, 180', concentration 5) -0.742%; (DRC-2, 180', concentration 10) 17%; (DRC-2, 180', concentration 20) 37%; (DRC-2, 180', concentration 40) 35%; (DRC-2, 180', concentration 80) 72%. In addition, the “% inhibition Apo pol 5'” value reads like this: (DRC-2, 5', concentration 2.5) 0.781%; (DRC-2, 5', concentration 5) 2.7%; (DRC-2, 5', concentration 10) 24%; (DRC-2, 5', concentration 20) 38%; (DRC-2, 5', concentration 40) 34%; (DRC-2, 5', concentration 80) 36%. In addition, the “% inhibition Apol 40'” value (DRC-2, 40', concentration 2.5) was found to be 4%; the “% inhibition Apol 40'” value (DRC-2, 40', concentration 5) worked out at 4.4%; the “% inhibition Apol 40'” value (DRC-2, 40', concentration 10) came to 28%; the “% inhibition Apol 40'” value (DRC-2, 40', concentration 20) is 47%; the “% inhibition Apol 40'” value (DRC-2, 40', concentration 40) was 45%; the “% inhibition Apol 40'” value (DRC-2, 40', concentration 80) is on record as 61%. For the same molecule, where the note is “conc 40 (unit not given); 40'; DRC-2”, the “% inhibition Apol 40'” value is listed as 45%. In addition, the “% inhibition ApPOL 90'” value is, setting by setting: (DRC-2, 90', concentration 2.5) 2.81%; (DRC-2, 90', concentration 5) 3.55%; (DRC-2, 90', concentration 10) 25%; (DRC-2, 90', concentration 20) 46%; (DRC-2, 90', concentration 40) 45%; (DRC-2, 90', concentration 80) 68%. For the same molecule, for the setting “conc 40 (unit not given); 90'; DRC-2”, the “% inhibition ApPOL 90'” value came to 45%.

`O=C(c1c[nH]c2ncccc12)N1CCCCCC1` [Molecule 51]: the IC50 under setting [1] came out at 21.5 µM.

For `COc1cccc(Oc2c(C(F)(F)F)oc3cc(OC(=O)N(C)C)ccc3c2=O)c1` [Molecule 52], the IC50 under setting [1] was determined as 40.6 µM.

In the case of `Cc1ccc(C)n1-c1ccc(C(=O)NNC(=O)c2ccc3nccnc3c2)cc1` [Molecule 53], the IC50 under setting [1] turned out to be 20.4 µM.

In the case of `Cc1ccc(-n2nnc(C(=O)O)c2-c2ccccn2)c(F)c1` [Molecule 54], the IC50 under setting [1] amounted to 14.5 µM.
